From patent US20230049952A1, “METHODS AND COMPOUNDS FOR RESTORING MUTANT P53 FUNCTION” (PMV Pharmaceuticals, Inc., priority 2020, published 2023)
Where two headings read alike, the source gives them in different places.

What was measured:
[1] = metabolic stability in cryopreserved hepatocytes; format: in vitro ADME, dog; details: Dog cryopreserved hepatocytes
Procedure: (§1) Mixed-gender human cryopreserved hepatocytes, male Sprague-Dawley rat cryopreserved hepatocytes, male CD-1 mouse cryopreserved hepatocytes, male beagle dog cryopreserved hepatocytes, and male cynomolgus monkey cryopreserved hepatocytes were used for the study. The hepatocytes were thawed, pooled into Krebs Henseleit buffer (KHB, pH 7.4), and kept on ice prior to the experiments. […] Each experiment was performed in triplicate. The final DMSO content in the incubation mixture was ≤0.1%. […] Aliquots of testosterone were withdrawn (n=1) at 0, 5, 15, 30, 60, and 120 minutes. Aliquots of 7-HC were withdrawn (n=1) at 0 and 15 minutes. The reaction was immediately terminated by adding three volumes of ice-cold MeCN containing IS. The samples were then mixed and spun by centrifuge to precipitate proteins. An aliquot of the supernatant was then diluted with water. Calibration standards for the analysis of 7-HC metabolites were prepared in matched matrix. […] All samples were analyzed by LC-MS/MS. The peak area response ratio (PARR) vs. IS was compared to the PARR at time 0 to determine the percent remaining at each time point. Half-lives and clearance values were calculated using GraphPad software, fitting to a single-phase exponential decay equation.
(§2) Mixed-gender human cryopreserved hepatocytes, male Sprague-Dawley rat cryopreserved hepatocytes, male CD-1 mouse cryopreserved hepatocytes, male beagle dog cryopreserved hepatocytes, and male cynomolgus monkey cryopreserved hepatocytes were thawed and pooled into KHB buffer (pH 7.4) and kept on ice prior to the experiments. […] Each experiment was performed in triplicate. The final DMSO content in the incubation mixture was ≤0.1%.
Aliquots of testosterone were withdrawn (n=1) at 0, 5, 15, 30, 60, and 120 minutes. Aliquots of 7-HC were withdrawn (n=1) at 0 and 15 minutes. The reaction was immediately terminated by adding three volumes of ice-cold MeCN containing IS. The samples were then mixed and spun by centrifuge to precipitate proteins. An aliquot of the supernatant was then diluted with water. Calibration standards for the analysis of 7-HC metabolites were prepared in matched matrix. […] All samples were analyzed by LC-MS/MS. Analytical conditions are outlined below. The peak area response ratio (PARR) vs. IS was compared to the PARR at time 0 to determine the percent remaining at each time point. Half-lives and clearance values were calculated using GraphPad software, fitting to a single-phase exponential decay equation.

[2] = metabolic stability in cryopreserved hepatocytes; format: in vitro ADME, human; details: both sexes, pH 7.4; Human cryopreserved hepatocytes; positive control 1 μM
Procedure: as §1, with “≤0.1%. […] Positive controls, testosterone (1 μM) and 7-hydroxycoumarin (7-HC) (100 μM), were performed in parallel to confirm the activity of the hepatocytes.” for “≤0.1%.”
as §2
(§3) Positive controls, testosterone (1 μM) and 7-hydroxycoumarin (7-HC) (100 μM), were performed in parallel to confirm the activity of the hepatocytes. […] Aliquots of testosterone were withdrawn (n=1) at 0, 5, 15, 30, 60, and 120 minutes. Aliquots of 7-HC were withdrawn (n=1) at 0 and 15 minutes. The reaction was immediately terminated by adding three volumes of ice-cold MeCN containing IS. The samples were then mixed and spun by centrifuge to precipitate proteins. An aliquot of the supernatant was then diluted with water. Calibration standards for the analysis of 7-HC metabolites were prepared in matched matrix. […] All samples were analyzed by LC-MS/MS. Analytical conditions are outlined below. The peak area response ratio (PARR) vs. IS was compared to the PARR at time 0 to determine the percent remaining at each time point. Half-lives and clearance values were calculated using GraphPad software, fitting to a single-phase exponential decay equation.

[3] = test system: human hepatocytes; assay: metabolic stability in cryopreserved hepatocytes; format: in vitro ADME; details: Human cryopreserved hepatocytes; positive control, 1 μM
Procedure: as §1, with “≤0.1%. […] Positive controls, testosterone (1 μM) and 7-hydroxycoumarin (7-HC) (100 μM), were performed in parallel to confirm the activity of the hepatocytes.” for “≤0.1%.”
as §2, §3

[4] = metabolic stability in cryopreserved hepatocytes; format: in vitro ADME, mouse; details: Mouse cryopreserved hepatocytes
Procedure: as §1, with “≤0.1%. […] Positive controls, testosterone (1 μM) and 7-hydroxycoumarin (7-HC) (100 μM), were performed in parallel to confirm the activity of the hepatocytes.” for “≤0.1%.”
as §2, §3

[5] = metabolic stability in cryopreserved hepatocytes; format: in vitro ADME, cynomolgus monkey; details: Monkey cryopreserved hepatocytes
Procedure: as §1, with “≤0.1%. […] Positive controls, testosterone (1 μM) and 7-hydroxycoumarin (7-HC) (100 μM), were performed in parallel to confirm the activity of the hepatocytes.” for “≤0.1%.”
as §2, §3

[6] = metabolic stability in cryopreserved hepatocytes; format: in vitro ADME, rat; details: Rat cryopreserved hepatocytes
Procedure: as §1, with “≤0.1%. […] Positive controls, testosterone (1 μM) and 7-hydroxycoumarin (7-HC) (100 μM), were performed in parallel to confirm the activity of the hepatocytes.” for “≤0.1%.”
as §2, §3

[7] = test system: BCRP; assay: cell batch quality control, BCRP-MDCK monolayers; format: in vitro ADME; details: dog; BCRP-MDCK cell batch QC; passage 23
Procedure: (§4) BCRP-MDCK cell monolayers were prepared at Absorption Systems. […] Each determination was performed in duplicate.

[8] = biological target: T1, BCRP (Homo sapiens, UniProt Q9UNQ0); assay: in vitro
T1 sequence (Q9UNQ0 1-655): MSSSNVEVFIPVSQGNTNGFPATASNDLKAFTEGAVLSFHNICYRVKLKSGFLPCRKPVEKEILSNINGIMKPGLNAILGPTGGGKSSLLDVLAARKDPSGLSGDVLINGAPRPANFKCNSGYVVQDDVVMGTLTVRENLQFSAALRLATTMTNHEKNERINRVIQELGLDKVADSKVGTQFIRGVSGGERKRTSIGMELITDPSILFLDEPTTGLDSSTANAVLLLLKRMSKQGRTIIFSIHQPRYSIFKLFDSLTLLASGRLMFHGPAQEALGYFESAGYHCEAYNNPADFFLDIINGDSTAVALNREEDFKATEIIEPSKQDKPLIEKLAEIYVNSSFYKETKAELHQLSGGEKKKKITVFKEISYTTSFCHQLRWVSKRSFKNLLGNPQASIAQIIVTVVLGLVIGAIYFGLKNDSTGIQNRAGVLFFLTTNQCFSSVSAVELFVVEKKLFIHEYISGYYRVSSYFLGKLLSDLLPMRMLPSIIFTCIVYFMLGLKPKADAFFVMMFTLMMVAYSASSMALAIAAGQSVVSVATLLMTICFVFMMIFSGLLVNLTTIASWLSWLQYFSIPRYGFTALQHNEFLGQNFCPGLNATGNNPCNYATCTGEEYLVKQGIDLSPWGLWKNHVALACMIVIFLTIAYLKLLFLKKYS

[9] = biological target: T1, BCRP; assay: BCRP substrate assessment, BCRP-MDCK monolayers; format: in vitro ADME
Procedure: as §4

[10] = biological target: T1, BCRP; assay: BCRP substrate assessment, Caco-2 monolayers; format: in vitro ADME; design: host or cells: Caco-2 (clone C2BBe1)
[11] = test system: human hepatocytes; details: male, 72 h, 100 μM
[12] = male, beagle, pH 7.4, positive control 1 μM
[13] = male, CD-1, pH 7.4, positive control 1 μM

C[C@]12CC[C@H]3[C@@H](CCC4=CC(=O)CC[C@@]43C)[C@@H]1CC[C@@H]2O [testosterone]
CLint ([1]; positive control, 1 μM): 0.0672 mL/min/10^6 cells
half-life [1, 12]: 6.88 min
hepatocyte CLint [1, 12]: 67.2 µL/min/1e6 cells
half-life [2]: 4.28 min
hepatocyte CLint [2]: 108 µL/min/1e6 cells
CLint [3]: 0.108 mL/min/10^6 cells
CLint ([4]; positive control, 1 μM): 0.181 mL/min/10^6 cells
half-life [4, 13]: 2.55 min
hepatocyte CLint [4, 13]: 181 µL/min/1e6 cells
half-life ([5]; positive control 1 μM): 3.08 min
CLint ([5]; positive control, 1 μM): 0.150 mL/min/10^6 cells
half-life ([5]; positive control, 1 μM): 3.08 min
hepatocyte CLint ([5]; male, pH 7.4, positive control 1 μM): 150 µL/min/1e6 cells
CLint ([6]; positive control, 1 μM): 0.405 mL/min/10^6 cells
half-life ([6]; positive control, 1 μM): 1.14 min
hepatocyte CLint ([6]; male, Sprague-Dawley, pH 7.4, positive control 1 μM): 405 µL/min/1e6 cells
half-life ([6]; male, Sprague-Dawley, pH 7.4, positive control 1 μM, read-out: Half-life): 1.14 min

Nc1nc(Cl)nc2c1ncn2[C@H]1C[C@H](O)[C@@H](CO)O1 [Cladribine, cladribine]
Papp A→B [7]: 0.136 ×10⁻⁶ cm/s
Papp B→A [7]: 18.4 ×10⁻⁶ cm/s
efflux ratio [7]: 135
efflux ratio ([8]; Caco-2, pH 7.4): 32
recovery ([8]; Caco-2, pH 7.4, % Recovery, IC50 determination, Caco-2, Cladribine alone, B-A): 103%
Papp A→B ([8]; Caco-2, pH 7.4, Papp AVG, Caco-2, Cladribine alone, A-to-B): 0.58 ×10⁻⁶ cm/s
Papp B→A ([8]; Caco-2, pH 7.4, Papp AVG, Caco-2, Cladribine alone, B-to-A): 18.5 ×10⁻⁶ cm/s
Papp B→A ([8]; Caco-2, pH 7.4, Papp AVG, IC50 determination, Caco-2, Cladribine alone, B-A): 14.6 ×10⁻⁶ cm/s
Papp A→B ([8]; Caco-2, pH 7.4, Papp R1, Caco-2, Cladribine alone, A-to-B): 0.681 ×10⁻⁶ cm/s
Papp B→A ([8]; Caco-2, pH 7.4, Papp R1, Caco-2, Cladribine alone, B-to-A): 17.7 ×10⁻⁶ cm/s
Papp B→A ([8]; Caco-2, pH 7.4, Papp R1, IC50 determination, Caco-2, Cladribine alone, B-A): 17.8 ×10⁻⁶ cm/s
Papp A→B ([8]; Caco-2, pH 7.4, Papp R2, Caco-2, Cladribine alone, A-to-B): 0.478 ×10⁻⁶ cm/s
Papp B→A ([8]; Caco-2, pH 7.4, Papp R2, Caco-2, Cladribine alone, B-to-A): 19.3 ×10⁻⁶ cm/s
Papp B→A ([8]; Caco-2, pH 7.4, Papp R2, IC50 determination, Caco-2, Cladribine alone, B-A): 11.5 ×10⁻⁶ cm/s
recovery ([8]; Caco-2, pH 7.4, Recovery (%), Caco-2, Cladribine alone, A-to-B): 80.5%
recovery ([8]; Caco-2, pH 7.4, Recovery (%), Caco-2, Cladribine alone, B-to-A): 85.6%
BCRP Substrate Classification ([9]; BCRP-MDCK, Cladribine): Positive
recovery at 120 min ([9]; dog, pH 7.4, BCRP-MDCK, Cladribine, A-to-B): 91.3%
Papp A→B at 120 min ([9]; dog, pH 7.4, BCRP-MDCK, Cladribine, A-to-B, read-out: Papp AVG): 0.211 ×10⁻⁶ cm/s
Papp A→B at 120 min ([9]; dog, pH 7.4, BCRP-MDCK, Cladribine, A-to-B, read-out: Papp R1): 0.142 ×10⁻⁶ cm/s
Papp A→B at 120 min ([9]; dog, pH 7.4, BCRP-MDCK, Cladribine, A-to-B, read-out: Papp R2): 0.28 ×10⁻⁶ cm/s
recovery at 120 min ([9]; dog, pH 7.4, BCRP-MDCK, Cladribine, B-to-A): 92.9%
Papp B→A at 120 min ([9]; dog, pH 7.4, BCRP-MDCK, Cladribine, B-to-A, read-out: Papp AVG): 17.6 ×10⁻⁶ cm/s
Papp B→A at 120 min ([9]; dog, pH 7.4, BCRP-MDCK, Cladribine, B-to-A, read-out: Papp R1): 15.6 ×10⁻⁶ cm/s
Papp B→A at 120 min ([9]; dog, pH 7.4, BCRP-MDCK, Cladribine, B-to-A, read-out: Papp R2): 19.6 ×10⁻⁶ cm/s
recovery at 120 min ([9]; dog, pH 7.4, with Ko143 0.5 µM, BCRP-MDCK, Cladribine + 0.5 μM Ko143, A-to-B): 93.5%
recovery at 120 min ([9]; dog, pH 7.4, with Ko143 0.5 µM, BCRP-MDCK, Cladribine + 0.5 μM Ko143, B-to-A): 107%
efflux ratio at 120 min ([9]; dog, pH 7.4, BCRP-MDCK, Cladribine): 83.3
BCRP Substrate Classification ([10]; Caco-2, Cladribine): Positive
recovery at 120 min ([10]; human, Caco-2, pH 7.4, Caco-2, Cladribine, A-to-B): 80.5%
Papp A→B at 120 min ([10]; human, Caco-2, pH 7.4, Caco-2, Cladribine, A-to-B, read-out: Papp AVG): 0.58 ×10⁻⁶ cm/s
Papp A→B at 120 min ([10]; human, Caco-2, pH 7.4, Caco-2, Cladribine, A-to-B, read-out: Papp R1): 0.681 ×10⁻⁶ cm/s
Papp A→B at 120 min ([10]; human, Caco-2, pH 7.4, Caco-2, Cladribine, A-to-B, read-out: Papp R2): 0.478 ×10⁻⁶ cm/s
recovery at 120 min ([10]; human, Caco-2, pH 7.4, Caco-2, Cladribine, B-to-A): 85.6%
Papp B→A at 120 min ([10]; human, Caco-2, pH 7.4, Caco-2, Cladribine, B-to-A, read-out: Papp AVG): 18.5 ×10⁻⁶ cm/s
Papp B→A at 120 min ([10]; human, Caco-2, pH 7.4, Caco-2, Cladribine, B-to-A, read-out: Papp R1): 17.7 ×10⁻⁶ cm/s
Papp B→A at 120 min ([10]; human, Caco-2, pH 7.4, Caco-2, Cladribine, B-to-A, read-out: Papp R2): 19.3 ×10⁻⁶ cm/s
recovery at 120 min ([10]; human, Caco-2, pH 7.4, with Ko143 0.5 µM, Caco-2, Cladribine + 0.5 μM Ko143, A-to-B): 89.8%
recovery at 120 min ([10]; human, Caco-2, pH 7.4, with Ko143 0.5 µM, Caco-2, Cladribine + 0.5 μM Ko143, B-to-A): 87.7%
efflux ratio at 120 min ([10]; human, pH 7.4, Caco-2, Cladribine): 32

CN(C)CCCN1c2ccccc2Sc2ccc(Cl)cc21 [Chlorpromazine, chlorpromazine]
% MTS Absorbance Relative to Vehicle Control [11]: 59.4%
Formazan Absorbance (n = 6) Mean [11]: 0.174
